Data published in patent US10913753B2, “Thienopyridine carboxamides as ubiquitin-specific protease inhibitors” (FORMA Therapeutics, Inc., priority 2016, dated 2021).

What was measured:
[1] = molecular target: USP25 (Homo sapiens (Human), UniProt Q9UHP3); assay: Ubiquitin-Rhodamine 110 Assay for USP25 Activity; format: biochemical
In short: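 USP25-His6 (75 pM) preincubated 30 min with compound (25 μM to 1.3 nM, 10-point 3-fold), then Ub-Rh110 added; 45 min at room temperature in pH 8.0 Tris buffer with BME, BGG, Triton X-100, stopped with 10 mM citric acid. Fluorescence 485/535 nm; % inhibition vs no-enzyme and DMSO controls, IC50 by 4-parameter logistic fit.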

[2] = molecular target: USP28 (Homo sapiens (Human), UniProt Q96RU2); assay: Ubiquitin-Rhodamine 110 Assay for USP28 Activity; format: biochemical
In short: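 Single-point screen at 10 μM, 90 min; follow-up dose-response (25 μM top, 3-fold) with 75 pM USP28 (1-1077)-TEV-6*His, 30 min compound preincubation, Ub-Rh110 substrate for 20 min at room temperature, citric acid stop. Buffer pH 8.0 Tris; fluorescence 485/535 nm; IC50 by 4-parameter logistic fit of % inhibition.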

USP25, sequence (Q9UHP3 whole entry): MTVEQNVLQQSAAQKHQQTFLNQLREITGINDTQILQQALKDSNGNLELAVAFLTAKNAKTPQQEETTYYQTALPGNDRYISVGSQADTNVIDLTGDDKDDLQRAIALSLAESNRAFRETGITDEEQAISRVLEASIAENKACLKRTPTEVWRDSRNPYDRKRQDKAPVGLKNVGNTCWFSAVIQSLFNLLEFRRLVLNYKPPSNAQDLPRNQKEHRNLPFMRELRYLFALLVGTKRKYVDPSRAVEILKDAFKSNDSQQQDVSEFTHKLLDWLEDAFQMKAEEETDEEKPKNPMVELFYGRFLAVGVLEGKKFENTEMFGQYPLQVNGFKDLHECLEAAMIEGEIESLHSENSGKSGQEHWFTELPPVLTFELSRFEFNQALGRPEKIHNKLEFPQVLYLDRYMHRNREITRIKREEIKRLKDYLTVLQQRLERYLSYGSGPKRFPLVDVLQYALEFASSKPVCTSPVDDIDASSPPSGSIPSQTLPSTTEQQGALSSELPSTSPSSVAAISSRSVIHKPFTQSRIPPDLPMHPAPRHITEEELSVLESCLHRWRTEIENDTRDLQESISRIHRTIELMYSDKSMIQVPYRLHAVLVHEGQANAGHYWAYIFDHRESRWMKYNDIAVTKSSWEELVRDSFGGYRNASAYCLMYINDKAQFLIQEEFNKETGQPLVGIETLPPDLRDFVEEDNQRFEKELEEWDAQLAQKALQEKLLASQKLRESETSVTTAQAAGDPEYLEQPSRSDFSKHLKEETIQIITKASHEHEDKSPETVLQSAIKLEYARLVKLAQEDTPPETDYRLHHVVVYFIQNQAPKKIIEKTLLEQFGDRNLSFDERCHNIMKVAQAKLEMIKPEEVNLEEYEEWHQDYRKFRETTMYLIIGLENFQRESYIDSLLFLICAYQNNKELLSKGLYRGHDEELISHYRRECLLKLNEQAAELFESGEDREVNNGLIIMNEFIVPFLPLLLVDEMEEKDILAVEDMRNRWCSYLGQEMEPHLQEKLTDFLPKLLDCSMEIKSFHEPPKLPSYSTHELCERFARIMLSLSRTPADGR
USP28, sequence (Q96RU2 whole entry): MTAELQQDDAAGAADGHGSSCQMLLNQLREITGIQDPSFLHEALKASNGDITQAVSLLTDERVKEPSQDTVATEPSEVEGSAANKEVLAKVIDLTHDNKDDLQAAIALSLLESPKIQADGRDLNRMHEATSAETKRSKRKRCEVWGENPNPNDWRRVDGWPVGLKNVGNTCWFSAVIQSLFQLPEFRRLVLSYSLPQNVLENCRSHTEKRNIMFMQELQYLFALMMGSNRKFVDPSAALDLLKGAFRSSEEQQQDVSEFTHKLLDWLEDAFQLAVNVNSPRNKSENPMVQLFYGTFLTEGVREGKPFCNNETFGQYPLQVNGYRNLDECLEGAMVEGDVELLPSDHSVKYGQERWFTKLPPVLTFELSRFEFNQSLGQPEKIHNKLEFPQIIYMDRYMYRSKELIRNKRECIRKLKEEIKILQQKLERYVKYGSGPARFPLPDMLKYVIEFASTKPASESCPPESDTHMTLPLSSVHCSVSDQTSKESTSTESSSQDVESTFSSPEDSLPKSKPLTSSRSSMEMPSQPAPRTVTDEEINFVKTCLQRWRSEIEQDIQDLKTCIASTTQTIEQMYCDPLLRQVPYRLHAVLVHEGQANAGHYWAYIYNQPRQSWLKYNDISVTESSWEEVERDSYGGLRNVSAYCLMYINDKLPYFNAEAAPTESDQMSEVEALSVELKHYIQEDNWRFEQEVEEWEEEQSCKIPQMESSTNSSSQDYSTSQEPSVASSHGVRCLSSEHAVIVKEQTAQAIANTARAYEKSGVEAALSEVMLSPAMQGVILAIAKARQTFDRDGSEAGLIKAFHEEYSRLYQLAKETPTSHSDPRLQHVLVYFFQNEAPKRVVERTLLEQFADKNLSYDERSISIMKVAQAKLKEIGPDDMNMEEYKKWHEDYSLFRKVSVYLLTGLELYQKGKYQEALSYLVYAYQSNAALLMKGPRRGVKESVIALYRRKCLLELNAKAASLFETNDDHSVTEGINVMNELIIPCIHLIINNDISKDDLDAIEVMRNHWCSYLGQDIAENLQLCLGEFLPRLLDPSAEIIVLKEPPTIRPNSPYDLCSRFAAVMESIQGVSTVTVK

SMILES | IC50 [1] | IC50 [2]
Cc1ccc2c(N)c(C(=O)NCCc3ccc4c(c3)C[C@@H](C(=O)O)C4)sc2n1 [Example I-177] | 0.2 to 2 µM | 0.2 to 2 µM
Cc1ccc2c(N)c(C(=O)NCCc3cc(F)c(N4C[C@H]5CCN[C@H]5C4)cc3F)sc2n1 [Example I-96] | 0.2 to 2 µM | < 0.2 µM
Cc1ccc2c(N)c(C(=O)NCCc3ccc4c(c3)C[C@H](C(=O)O)C4)sc2n1 [Example I-176] | 0.2 to 2 µM | 0.2 to 2 µM
Cc1cc2c(N)c(C(=O)NCCc3ccc(N4CCNCC4)c(Cl)c3)sc2nc1C [Compound I-31] | 2 to 10 µM | 2 to 10 µM
Nc1c(C(=O)NCCc2ccc(N3CCNCC3)cc2)sc2ncc(C(F)F)cc12 [Compound I-27] | 10 to 25 µM | 2 to 10 µM
Cc1nc2sc(C(=O)NC[C@@H](C)c3cc(F)c(N4CC5CCC(C4)N5)cc3F)c(N)c2cc1F (single isomer, unassigned) [Example I-111] | 0.2 to 2 µM | < 0.2 µM
Cc1ccc2c(N)c(C(=O)NCCc3ccc(N4CCC5(CCCNC5)C4)cc3)sc2n1 (single isomer, unassigned) [Example I-216] | 0.2 to 2 µM | 0.2 to 2 µM
CCOc1cc(CCNC(=O)c2sc3nc(C)ccc3c2N)ccc1N1CCNCC1 [Example I-83] | 0.2 to 2 µM | 0.2 to 2 µM
Cc1ccc2c(N)c(C(=O)NCCc3ccc(C4CC5CCC(C4)N5)cc3)sc2n1 (single isomer, unassigned) [Example I-171, N-(4-(8-azabicyclo[3.2.1]octan-3-yl)phenethyl)-3-amino-6-methylthieno[2,3-b]pyridine-2-carboxamide] | 0.2 to 2 µM | 0.2 to 2 µM
Cc1ccc2c(N)c(C(=O)NC[C@H](C)c3ccc(N4CC5CCC(C4)N5)cc3F)sc2n1 (single isomer, unassigned) [Example I-104] | 0.2 to 2 µM | 0.2 to 2 µM
Nc1c(C(=O)NCCc2ccc(N3CCNCC3)cc2)sc2nc(C(F)(F)F)ccc12 [Compound I-33] | 2 to 10 µM | 2 to 10 µM
Cc1ccc2c(N)c(C(=O)NCCc3ccc(N4CCNCC4)c(-c4ccccc4)c3)sc2n1 [Compound I-23] | 2 to 10 µM | 0.2 to 2 µM
C[C@@H](CNC(=O)c1sc2ncc(F)cc2c1N)c1cc(F)c(N2CC3CCC(C2)N3)cc1F (single isomer, unassigned) [Example I-102] | 2 to 10 µM | 2 to 10 µM
Cc1ccc2c(N)c(C(=O)NCCc3ccc(N4CC5CCC(C4)N5)cc3Cl)sc2n1 [Compound I-21] | < 0.2 µM | < 0.2 µM
Cc1cc(C(F)(F)F)c2c(N)c(C(=O)NCCc3ccc(N4CCNCC4)cc3)sc2n1 [Compound I-204] | < 0.2 µM | 0.2 to 2 µM
C[C@H](CNC(=O)c1sc2ncc(F)cc2c1N)c1cc(F)c(N2CC3CCC(C2)N3)cc1F (single isomer, unassigned) [Example I-101] | 2 to 10 µM | 2 to 10 µM
Cc1ccc2c(N)c(C(=O)NCCc3ccc(N4CCNCC4)c(O)c3)sc2n1 [Example I-182, 3-amino-N-(3-hydroxy-4-(piperazin-1-yl)phenethyl)-6-methylthieno[2,3-b]pyridine-2-carboxamide] | 2 to 10 µM | 0.2 to 2 µM
Cc1nc2sc(C(=O)NC[C@@H](C)c3cc(F)c(N4CCNCC4)cc3F)c(N)c2cc1F [Example I-99] | 2 to 10 µM | 2 to 10 µM
Cc1nc2sc(C(=O)NCCc3cc(F)c(N4CC5CCC(C4)N5)cc3F)c(N)c2cc1F [Compound I-72] | 0.2 to 2 µM | < 0.2 µM
Cc1ccc2c(N)c(C(=O)NCCc3ccc(N4CCN[C@@H](CO)C4)cc3)sc2n1 [Example I-87] | 0.2 to 2 µM | < 0.2 µM
Cc1cc(N)nc2sc(C(=O)NCCc3ccc(N4CCNCC4)c(Cl)c3)c(N)c12 [Compound I-17] | 2 to 10 µM | 0.2 to 2 µM
Cc1ccc2c(N)c(C(=O)NCCc3ccc(O[C@@H]4COC5(CNC5)C4)cc3)sc2n1 (single isomer, unassigned) [Example I-218] | 0.2 to 2 µM | 0.2 to 2 µM
Cc1cc(N)nc2sc(C(=O)NCCc3ccc(N4CCNCC4)cc3)c(N)c12 [Example I-183, 3,6-Diamino-4-methyl-N-(4-(piperazin-1-yl)phenethyl)thieno[2,3-b]pyridine-2-carboxamide] | 0.2 to 2 µM | 0.2 to 2 µM
Cc1ccc2c(N)c(C(=O)NC[C@H](C)c3ccc(N4CC5CCC(C4)N5)c(F)c3)sc2n1 (single isomer, unassigned) [Example I-106] | 2 to 10 µM | 0.2 to 2 µM
Cc1ccc2c(N)c(C(=O)NCCc3ccc(N4CCNCC4)c(C4CC4)c3)sc2n1 [Compound I-6] | 0.2 to 2 µM | < 0.2 µM
COc1nc2sc(C(=O)NCCc3cc(F)c(N4CCNCC4)cc3F)c(N)c2cc1F [Compound I-68] | 2 to 10 µM | 0.2 to 2 µM

SMILES | IC50 [1] | IC50 [2]
Cc1ccc2c(N)c(C(=O)NCCc3ccc(C4CC5CCC(C4)N5)cc3)sc2n1 (single isomer, unassigned) [Example I-172, N-(4-(8-azabicyclo[3.2.1]octan-3-yl)phenethyl)-3-amino-6-methylthieno[2,3-b]pyridine-2-carboxamide] | < 0.2 µM | < 0.2 µM
Cc1ccc2c(N)c(C(=O)NCCc3cnc(N4CCNCC4)c(Cl)c3)sc2n1 [Example I-215, 3-Amino-N-(2-(5-chloro-6-(piperazin-1-yl)pyridin-3-yl)ethyl)-6-methylthieno[2,3-b]pyridine-2-carboxamide] | 2 to 10 µM | 0.2 to 2 µM
CCNc1ccc2c(N)c(C(=O)NCCc3ccc(N4CCNCC4)cc3)sc2n1 [Example I-188] | 0.2 to 2 µM | < 0.2 µM
Nc1cc(C(F)F)c2c(N)c(C(=O)NCCc3ccc(N4CCNCC4)cc3)sc2n1 [Compound I-16] | 0.2 to 2 µM | < 0.2 µM
Nc1c(C(=O)NCCc2ccc(N3CCNCC3)cc2)sc2nc3c(cc12)CCCC3 [Compound I-30] | 10 to 25 µM | 2 to 10 µM
Cc1ccc2c(N)c(C(=O)NCCc3ccc(N4CC5CCC(C4)N5)c(C#N)c3)sc2n1 [Compound I-54] | 0.2 to 2 µM | < 0.2 µM
Cc1ccc2c(N)c(C(=O)NCCc3cc(F)c(N4CC5CCC(C4)N5)cc3F)sc2n1 [Compound I-34] | 0.2 to 2 µM | < 0.2 µM
Cc1ccc2c(N)c(C(=O)NC[C@@H](C)c3ccc(N4CCNCC4)cc3)sc2n1 [Example I-203] | 2 to 10 µM | 0.2 to 2 µM
Cc1ccc2c(N)c(C(=O)NCCc3ccc(N4CCNCC4)c4c3CCC4)sc2n1 [Compound I-18] | < 0.2 µM | < 0.2 µM
Cc1nc2sc(C(=O)NCCc3ccc(N4CCNCC4)cc3)c(N)c2cc1F [Compound I-63] | 0.2 to 2 µM | < 0.2 µM
CN[C@H]1CN(c2cc(F)c(CCNC(=O)c3sc4nc(C)ccc4c3N)cc2F)C[C@@H]1F (single isomer, unassigned) [Example I-214] | 2 to 10 µM | 0.2 to 2 µM
Cc1ccc2c(N)c(C(=O)NCCc3ccc(N4CCNCC4)c(-c4cnn(C5CCOCC5)c4)c3)sc2n1 [Example I-166] | 10 to 25 µM | 2 to 10 µM
Cc1ccc2c(N)c(C(=O)NCCc3ccc(N4CC5CC(C4)N5)cc3)sc2n1 [Compound I-65] | < 0.2 µM | < 0.2 µM
Cc1ccc2c(N)c(C(=O)NCCc3ccc([C@@H]4CCNC4)cc3)sc2n1 (single isomer, unassigned) [Example I-181] | 0.2 to 2 µM | < 0.2 µM
CNc1ccc2c(N)c(C(=O)NCCc3ccc(C4CCNCC4)cc3)sc2n1 [Example I-196] | 0.2 to 2 µM | 0.2 to 2 µM
CN[C@H]1CN(c2cc(F)c(CCNC(=O)c3sc4nc(C)ccc4c3N)cc2F)C[C@H]1F (single isomer, unassigned) [Example I-212] | 0.2 to 2 µM | 0.2 to 2 µM
Cc1ccc2c(N)c(C(=O)NC[C@@H](C)c3ccc(N4CC5CCC(C4)N5)c(F)c3)sc2n1 (single isomer, unassigned) [Example I-105] | 0.2 to 2 µM | 0.2 to 2 µM
CCc1ccc2c(N)c(C(=O)NCCc3ccc(N4CCNCC4)cc3)sc2n1 [Compound I-47] | < 0.2 µM | < 0.2 µM
CN[C@@H]1CN(c2cc(F)c(CCNC(=O)c3sc4nc(C)ccc4c3N)cc2F)C[C@H]1F (single isomer, unassigned) [Example I-213] | 0.2 to 2 µM | 0.2 to 2 µM
Cc1ccc2c(N)c(C(=O)NCCc3cc(F)c(N4C[C@H]5C[C@@H]4CN5)cc3F)sc2n1 [Compound I-53] | < 0.2 µM | < 0.2 µM
Nc1c(C(=O)NCCc2ccc(N3CCNCC3)cc2)sc2nc3c(cc12)CCC3O (centres unmarked) [Example I-223, 3-Amino-7-hydroxy-N-(4-(piperazin-1-yl)phenethyl)-6,7-dihydro-5H-cyclopenta[b]thieno[3,2-e]pyridine-2-carboxamide] | 0.2 to 2 µM | 2 to 10 µM
CN[C@H]1CCN(c2ccc(CCNC(=O)c3sc4nc(C)ccc4c3N)cc2Cl)C1 [Example I-79] | 0.2 to 2 µM | 0.2 to 2 µM
Nc1c(C(=O)NCCc2ccc(N3CCNCC3)cc2)sc2nc(CO)ccc12 [Compound I-43] | 2 to 10 µM | 0.2 to 2 µM
Cc1ccc2c(N)c(C(=O)NCCc3ccc(N4CCNCC4)cc3)sc2n1 [Example I-1, 3-Amino-6-methyl-N-(4-(piperazin-1-yl)phenethyl)thieno[2,3-b]pyridine-2-carboxamide] | 0.2 to 2 µM | 0.2 to 2 µM
Cc1ccc2c(N)c(C(=O)NCCc3ccc(C4CCNCC4)c(Cl)c3)sc2n1 [Compound I-205] | 0.2 to 2 µM | < 0.2 µM
Cc1nc2sc(C(=O)NCCc3ccc(N4CC5CCC(C4)N5)c(C#N)c3)c(N)c2cc1F [Compound I-71] | 0.2 to 2 µM | 0.2 to 2 µM
